The record followed here is patent USRE47193E1, “Selectively substituted quinoline compounds” (EISAI R&D MANAGEMENT CO., LTD., priority 2013, dated 2019).

Each structure is given as a SMILES string. pIC50: −log10 of the molar value.

For experiment [1], the system named is Human TLR7/8. Put plainly: Human PBMC cell-based assay, TLR7/8 stimulus (RNA-Ig), cytokine ELISA. The conditions noted are these: primary human PBMC assay, TLR7/8 potency; ligand not given; read-out: Human PBMCs IC50. The method in brief:
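The agonist was RNA-Ig, a U1 snRNA-derived 26-mer RNA (2.5 μM) complexed with RNA-cross-reacting anti-ssDNA mAb (1:25 or 1 ug/ml), added after 30 min compound pre-incubation (0.1% DMSO). Density-gradient PBMC from healthy donors, 2×10^5/well, were stimulated 20 h at 37 °C; cytokines quantified by ELISA.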
(An ELISA detects its analyte on a solid surface through an enzyme-linked reagent.)

Experiment [2] concerns Mouse Splenocytes. Put plainly: Mouse spleen cell-based assay (R848, IL-6 ELISA). To be noted: BALB/c spleen cells, 370 nM R848. The protocol:
Mouse Spleen cell-based assay. Spleens were harvested from female BALB/c mice (Jackson Labs, Bar Harbor, Me.) euthanized by CO2. A single cell suspension was obtained by passing spleens through a 40 μm an nylon cell strainer. Cells were washed twice with 50 ml PBS (Mediatech, Inc., Manassas, Va.) and red blood cells were lysed in 5 ml RBC Lysis buffer (eBioscience, Inc., San Diego, Calif.) for 5 minutes at room temperature. Cells were washed twice more in PBS and finally resuspended in supplemented RPMI-1640 at 2.5×10^6 cells/ml. Cells were plated at 100 μl/well (2.5×10^5 cells/well) in 96-well tissue culture treated plates (Falcon). Serial dilutions of compounds solubilized in 100% DMSO were added in triplicate to cells to yield a final concentration of 0.1% DMSO. Cells were incubated with compound for 30 minutes at 37° C., 5% CO2 before adding 100 μl/well of 740 nM R848 (Resiquimod; GLSynthesis, Worcester, Mass.) in complete media for a final concentration of 370 nM R848. Cells were incubated for 20 hours at 37° C., 5% CO2. Culture supernatants were collected, and levels of IL-6 were assessed by standard ELISA procedure according to the manufacturer's recommended protocol (BD Biosciences, Inc., San Diego, Calif.).

Experiment [3] addresses T1, mouse TLR7 (Mus musculus, UniProt P58681).
T1 sequence (P58681 27-1050): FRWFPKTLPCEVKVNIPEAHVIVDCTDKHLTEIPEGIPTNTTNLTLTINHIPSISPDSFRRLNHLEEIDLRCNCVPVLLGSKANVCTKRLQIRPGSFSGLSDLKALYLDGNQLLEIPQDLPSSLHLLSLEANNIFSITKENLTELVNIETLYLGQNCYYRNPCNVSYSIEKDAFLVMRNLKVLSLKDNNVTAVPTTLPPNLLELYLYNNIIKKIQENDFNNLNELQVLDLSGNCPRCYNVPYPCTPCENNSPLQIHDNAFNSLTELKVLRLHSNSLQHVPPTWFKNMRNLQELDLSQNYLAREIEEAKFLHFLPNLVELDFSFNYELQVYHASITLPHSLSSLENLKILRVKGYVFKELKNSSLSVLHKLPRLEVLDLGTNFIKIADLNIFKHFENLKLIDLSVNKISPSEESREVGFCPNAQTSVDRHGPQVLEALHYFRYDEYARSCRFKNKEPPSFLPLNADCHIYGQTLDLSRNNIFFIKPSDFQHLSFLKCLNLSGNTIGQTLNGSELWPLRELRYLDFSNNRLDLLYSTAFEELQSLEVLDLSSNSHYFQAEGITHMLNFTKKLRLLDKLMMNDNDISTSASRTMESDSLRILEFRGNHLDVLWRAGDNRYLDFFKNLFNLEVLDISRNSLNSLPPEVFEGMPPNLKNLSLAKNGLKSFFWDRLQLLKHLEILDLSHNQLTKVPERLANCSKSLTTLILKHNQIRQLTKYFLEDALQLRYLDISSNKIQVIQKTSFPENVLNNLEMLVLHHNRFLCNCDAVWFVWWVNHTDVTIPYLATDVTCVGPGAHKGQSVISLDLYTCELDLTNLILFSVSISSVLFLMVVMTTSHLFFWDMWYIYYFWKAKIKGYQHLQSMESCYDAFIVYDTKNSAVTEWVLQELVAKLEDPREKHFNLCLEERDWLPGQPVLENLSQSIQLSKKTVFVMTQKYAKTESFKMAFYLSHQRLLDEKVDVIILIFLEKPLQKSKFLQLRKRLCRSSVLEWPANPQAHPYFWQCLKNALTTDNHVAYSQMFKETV
The experiment can be described thus: Short-term in vivo (STIV) assay: oral dosing, R848 s.c., plasma IL-6. Further details: female BALB/c mice (Jackson Labs, Bar Harbor, Me.) were dosed by oral gavage; tissue Jackson Labs; host or cells: living female BALB/c mice; plasma IL-6 after s.c. R848. The method in brief: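 Female BALB/c mice (6–8 weeks) dosed orally with compound in 0.5% aqueous methyl-cellulose at 33, 100 or 300 mg/kg; at various times afterwards given 15 ug R848 s.c. to stimulate TLR7. Plasma IL-6 measured by ELISA to gauge potency and duration of action.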

In the case of `CC1CN(c2ccc(C#N)c3ncccc23)CC(CN2CCNCC2C)O1` (stereo not drawn) [ER-887268], the pIC50 in experiment [1] was 8.30; in experiment [2] (Mus musculus, Splenocyte), 5.67. Also, the “% Suppression vs. Vehicle” value in experiment [3] (6 h, 11 mg/kg) came out at 80%; in experiment [3] (6 h, 33 mg/kg), 98%; in experiment [3] (6 h, 100 mg/kg) it was 99%; in experiment [3] (19 h, 11 mg/kg) it was 25%; in experiment [3] (19 h, 33 mg/kg) it was 63%; in experiment [3] (19 h, 100 mg/kg), 95%.

For the compound `C[C@@H]1CN(c2ccc(C#N)c3ncccc23)C[C@H](CN2CCC(N)CC2)O1` [ER-888070], the pIC50 in experiment [1] is 8.52; in experiment [2] (Mus musculus, Splenocyte) it was 7.12. For the same compound, the “% Suppression vs. Vehicle” value in experiment [3] (6 h, 33 mg/kg) is on record as 88%; in experiment [3] (6 h, 100 mg/kg), 100%; in experiment [3] (6 h, 300 mg/kg), 100%; in experiment [3] (19 h, 33 mg/kg) it was 70%; in experiment [3] (19 h, 100 mg/kg) it was 90%; in experiment [3] (19 h, 300 mg/kg), 99%.

For `C[C@@H]1CN(c2ccc(C#N)c3ncccc23)C[C@H](CN2CCC(N3CCCC3)CC2)O1` [ER-888480], the pIC50 in experiment [1] was 9.00; in experiment [2], 7.06. The “% Suppression vs. Vehicle” value in experiment [3] (6 h, 11 mg/kg) came out at 85%; in experiment [3] (6 h, 33 mg/kg), 100%; in experiment [3] (6 h, 100 mg/kg), 100%; in experiment [3] (19 h, 11 mg/kg), 63%; in experiment [3] (19 h, 33 mg/kg) it was 89%; in experiment [3] (19 h, 100 mg/kg) it was 98%.

`CC1CN(c2ccc(C#N)c3ncccc23)CC(CN2CC(N3CCCC3)C2)O1` (stereo not drawn) [ER-889469]: the negative logarithm of the IC50 (pIC50) in experiment [1] is 7.89; in experiment [2] (Mus musculus, Splenocyte), 7.01. Moreover, the “% Suppression vs. Vehicle” value is given as 100% in experiment [3] (3 h, 33 mg/kg); 100% in experiment [3] (3 h, 100 mg/kg); 100% in experiment [3] (6 h, 33 mg/kg); 100% in experiment [3] (6 h, 100 mg/kg); 73% in experiment [3] (19 h, 100 mg/kg).

Turning to `CC1CN(c2ccc(C#N)c3ncccc23)CC(CN2CC(N3CCCCC3)C2)O1` (stereo not drawn) [ER-889470], the pIC50 was 7.92 in experiment [1] and 6.82 in experiment [2] (Mus musculus, Splenocyte). In addition, the “% Suppression vs. Vehicle” value in experiment [3] (3 h, 33 mg/kg) was determined as 100%; in experiment [3] (3 h, 100 mg/kg), 98%; in experiment [3] (6 h, 33 mg/kg), 96%; in experiment [3] (6 h, 100 mg/kg), 100%; in experiment [3] (19 h, 100 mg/kg) it was 78%.

As to `CC1CN(c2ccc(C#N)c3ncccc23)CC(CN2CCC(N3CCOCC3)CC2)O1` (stereo not drawn) [ER-890093], the pIC50 in experiment [1] is 7.66; in experiment [2] (Mus musculus, Splenocyte), 7.06. In addition, the “% Suppression vs. Vehicle” value in experiment [3] (3 h, 100 mg/kg) came to 92%; in experiment [3] (6 h, 33 mg/kg), 92%; in experiment [3] (6 h, 100 mg/kg), 95%; in experiment [3] (13 h, 33 mg/kg) it was 98%; in experiment [3] (13 h, 100 mg/kg), 100%.

On to `C[C@@H]1CN(c2ccc(C#N)c3ncccc23)C[C@H](CN2CC[C@H](N3CCCC3)C2)O1` [ER-893881], for which the pIC50 in experiment [1] was 8.05; in experiment [2] (Mus musculus, Splenocyte), 6.57. Also, the “% Suppression vs. Vehicle” value in experiment [3] (3 h, 33 mg/kg) was determined as 95%; in experiment [3] (6 h, 33 mg/kg), 82%; in experiment [3] (6 h, 100 mg/kg) it was 99%; in experiment [3] (13 h, 33 mg/kg), 0%; in experiment [3] (13 h, 100 mg/kg), 19%.

Turning to `CC(=O)NC1CN(C[C@H]2CN(c3ccc(C#N)c4ncccc34)C[C@@H](C)O2)C1` [ER-894152], the pIC50 in experiment [1] was 6.76; in experiment [2] (Mus musculus, Splenocyte), 6.18.

In the case of `C[C@@H]1CN(c2ccc(C#N)c3ncccc23)C[C@H](CN2CCNC(C)(C)C2)O1` [ER-894655], the pIC50 in experiment [1] was 8.30; in experiment [2] (Mus musculus, Splenocyte) it was 7.08.

Regarding `CC1CN(c2ccc(C#N)c3ncccc23)CC(CN2CCN(C)C(C)(C)C2)O1` (stereo not drawn) [ER-894656], the pIC50 in experiment [1] was 8.15; in experiment [2] (Mus musculus, Splenocyte), 7.64.

`CCNC(=O)C1CCN(CC2CN(c3ccc(C#N)c4ncccc34)CC(C)O2)CC1` (stereo not drawn) [ER-895204]: the pIC50 in experiment [1] is 7.64; in experiment [2] (Mus musculus, Splenocyte) it was 7.29. In addition, the “% Suppression vs. Vehicle” value in experiment [3] (6 h, 33 mg/kg) is reported as 98%; in experiment [3] (13 h, 33 mg/kg), 22%; in experiment [3] (13 h, 100 mg/kg) it was 43%; in experiment [3] (13 h, 300 mg/kg), 99%; in experiment [3] (24 h, 33 mg/kg) it was 39%; in experiment [3] (24 h, 100 mg/kg) it was 39%. Further, the “% Suppression vs. Vehicle” value in experiment [3] (24 h, 300 mg/kg) was found to be 78%.

As to `CC1CN(c2ccc(C#N)c3ncccc23)CC(COc2ncccn2)O1` (stereo not drawn) [ER-895325], the negative-log IC50 (pIC50) in experiment [1] is 7.59; in experiment [2] (Mus musculus, Splenocyte), 6.92.

What is called pIC50 is the negative decadic logarithm of the IC50, by convention in mol/L.
